Measured values as given in PubChem BioAssay (NCI).
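All cell lines were grown in 96-well plates and treated with compound for 48 hours. GI50 marks 50% less growth. TGI: total growth inhibition.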

Key:
Assay in all cases: inhibition of tumour cell growth, NCI panel, 48 h
786-0 renal = system: 786-0 renal
KM12 colon = system: KM12 colon
CAKI-1 renal = system: CAKI-1 renal
SF-539 CNS = system: SF-539 CNS
MALME-3M melanoma = system: MALME-3M melanoma
OVCAR-8 ovarian = system: OVCAR-8 ovarian
EKVX NSCLC = system: EKVX NSCLC
SNB-75 CNS = system: SNB-75 CNS
IGROV1 ovarian = system: IGROV1 ovarian
M14 melanoma = system: M14 melanoma
MCF7 breast = system: MCF7 breast
SNB-19 CNS = system: SNB-19 CNS
SF-268 CNS = system: SF-268 CNS
SK-MEL-28 melanoma = system: SK-MEL-28 melanoma
ACHN renal = system: ACHN renal
OVCAR-5 ovarian = system: OVCAR-5 ovarian
DU-145 prostate = system: DU-145 prostate
COLO 205 colon = system: COLO 205 colon
OVCAR-4 ovarian = system: OVCAR-4 ovarian
HOP-92 NSCLC = system: HOP-92 NSCLC
MOLT-4 leukemia = system: MOLT-4 leukemia
NCI-H23 lung = system: NCI-H23 lung
HOP-62 NSCLC = system: HOP-62 NSCLC
SK-MEL-5 melanoma = system: SK-MEL-5 melanoma
NCI-H226 lung = system: NCI-H226 lung
A498 renal = system: A498 renal
BT-549 breast = system: BT-549 breast
UACC-62 melanoma = system: UACC-62 melanoma
SF-295 CNS = system: SF-295 CNS
SK-MEL-2 melanoma = system: SK-MEL-2 melanoma
UACC-257 melanoma = system: UACC-257 melanoma
RPMI-8226 leukemia = system: RPMI-8226 leukemia
HL-60(TB) leukemia = system: HL-60(TB) leukemia
PC-3 prostate = system: PC-3 prostate
NCI/ADR-RES ovarian = system: NCI/ADR-RES ovarian
LOX IMVI melanoma = system: LOX IMVI melanoma
K-562 leukemia = system: K-562 leukemia
HT29 colon = system: HT29 colon
U251 CNS = system: U251 CNS
CCRF-CEM leukemia = system: CCRF-CEM leukemia
SW-620 colon = system: SW-620 colon
HCC-2998 colon = system: HCC-2998 colon
NCI-H522 lung = system: NCI-H522 lung
HS 578T breast = system: HS 578T breast
A549 NSCLC = system: A549 NSCLC
OVCAR-3 ovarian = system: OVCAR-3 ovarian
MDA-MB-231 breast = system: MDA-MB-231 breast
SR leukemia = system: SR leukemia
NCI-H460 lung = system: NCI-H460 lung
TK-10 renal = system: TK-10 renal
SN12C renal = system: SN12C renal
HCT-15 colon = system: HCT-15 colon
HCT-116 colon = system: HCT-116 colon
UO-31 renal = system: UO-31 renal

## CCCOC(=O)N[C@H]1CCc2cc(OC)c(OC)c(OC)c2-c2ccc(SC)c(=O)cc21
786-0 renal
  GI50: < 0.01 µM
  TGI: > 100 µM
KM12 colon
  GI50: < 0.01 µM
  TGI: > 38.6 µM
CAKI-1 renal
  GI50: < 0.0201 µM
  TGI: 24.2 µM
SF-539 CNS
  GI50: < 0.01 µM
  TGI: 0.173 µM
MALME-3M melanoma
  GI50: 0.0476 µM
  TGI: > 47.4 µM
OVCAR-8 ovarian
  GI50: < 0.01 µM
  TGI: > 100 µM
EKVX NSCLC
  GI50: < 0.01 µM
  TGI: > 100 µM
SNB-75 CNS
  GI50: < 0.01 µM
  TGI: > 100 µM
IGROV1 ovarian
  GI50: < 0.01 µM
  TGI: > 100 µM
M14 melanoma
  GI50: < 0.01 µM
MCF7 breast
  GI50: < 0.01 µM
  TGI: > 100 µM
SNB-19 CNS
  GI50: < 0.01 µM
  TGI: > 100 µM
SF-268 CNS
  GI50: < 0.01 µM
  TGI: > 54.1 µM
SK-MEL-28 melanoma
  GI50: 10.1 µM
  TGI: > 68.1 µM
ACHN renal
  GI50: < 0.01 µM
  TGI: 15.7 µM
OVCAR-5 ovarian
  GI50: < 0.01 µM
  TGI: > 100 µM
DU-145 prostate
  GI50: < 0.01 µM
  TGI: > 100 µM
COLO 205 colon
  GI50: < 0.01 µM
  TGI: 0.0108 µM
OVCAR-4 ovarian
  TGI: > 71.5 µM
HOP-92 NSCLC
  GI50: < 0.0182 µM
  TGI: 16.1 µM
MOLT-4 leukemia
  GI50: < 0.01 µM
  TGI: 24.4 µM
NCI-H23 lung
  GI50: < 0.01 µM
  TGI: > 100 µM
HOP-62 NSCLC
  GI50: < 0.01 µM
  TGI: > 100 µM
SK-MEL-5 melanoma
  GI50: < 0.01 µM
  TGI: 0.018 µM
NCI-H226 lung
  GI50: < 0.01 µM
  TGI: 10.6 µM
A498 renal
  GI50: < 0.01 µM
BT-549 breast
  GI50: < 0.01 µM
  TGI: 19.6 µM
UACC-62 melanoma
  GI50: < 0.01 µM
  TGI: > 61.2 µM
SF-295 CNS
  GI50: < 0.01 µM
  TGI: 6.77 µM
SK-MEL-2 melanoma
  GI50: 0.463 µM
  TGI: 90.1 µM
UACC-257 melanoma
  GI50: 12.1 µM
  TGI: > 56.3 µM
RPMI-8226 leukemia
  GI50: < 0.01 µM
  TGI: 8.22 µM
HL-60(TB) leukemia
  GI50: < 0.01 µM
  TGI: < 0.0129 µM
PC-3 prostate
  GI50: < 0.01 µM
  TGI: > 100 µM
NCI/ADR-RES ovarian
  GI50: 0.0268 µM
  TGI: > 100 µM
LOX IMVI melanoma
  GI50: < 0.01 µM
  TGI: > 42.4 µM
K-562 leukemia
  GI50: < 0.01 µM
  TGI: 24.1 µM
HT29 colon
  GI50: < 0.01 µM
  TGI: > 39.4 µM
U251 CNS
  GI50: < 0.01 µM
  TGI: > 34.1 µM
CCRF-CEM leukemia
  GI50: < 0.01 µM
  TGI: 19.7 µM
SW-620 colon
  GI50: < 0.01 µM
  TGI: 21.5 µM
HCC-2998 colon
  GI50: < 0.01 µM
  TGI: 4.92 µM
NCI-H522 lung
  GI50: < 0.01 µM
  TGI: 7.25 µM
HS 578T breast
  GI50: < 0.01 µM
  TGI: > 100 µM
A549 NSCLC
  GI50: < 0.01 µM
  TGI: > 100 µM
OVCAR-3 ovarian
  GI50: < 0.01 µM
  TGI: < 0.0238 µM
MDA-MB-231 breast
  GI50: < 0.01 µM
  TGI: 25.5 µM
SR leukemia
  GI50: < 0.01 µM
  TGI: > 56.3 µM
NCI-H460 lung
  GI50: < 0.01 µM
  TGI: 11.7 µM
TK-10 renal
  GI50: 3.61 µM
  TGI: > 70.5 µM
SN12C renal
  GI50: < 0.01 µM
  TGI: > 100 µM
HCT-15 colon
  GI50: < 0.01 µM
  TGI: 12 µM
HCT-116 colon
  GI50: < 0.01 µM
  TGI: 14.8 µM
UO-31 renal
  TGI: 42 µM
